What all share (assay type): cell-based
Data set [1] in a line: Cytotoxicity against human MS-G2 cells at 20 ug/mL.
The test system of data set [2] is MS-G2. Kind of data set: Inhibition of Hepatitis B virus E antigen activity in human MS-G2 cells at 10 ug/mL.
In data set [3] the test system is MS-G2. Nature of the data set: Inhibition of Hepatitis B virus E antigen activity in human MS-G2 cells at 5 ug/mL.

Active and inactive are the calls of the source. The rule behind the calls is not given here.

As for `COc1cc(O)c(Cc2ccc(O)cc2)c2c1-c1ccc(O)c(CC=C(C)C)c1CC2` [SINENSOL C], in data set [1], the result was Active. Moreover, the result with MS-G2 [2] and in the data set on MS-G2 [3] was inactive.
For `COc1cc(O)c2c(c1Cc1ccc(O)cc1)CCc1c-2ccc2c1CC(C(C)(C)O)O2` (stereo not drawn) [SINENSOL E], the result in data set [1] was Active. In addition, the outcome in the data set with MS-G2 [2] and in the data set with MS-G2 [3] was inactive.
As to `COc1cc(OC)c2c(c1Cc1ccc(O)cc1)CCc1c-2ccc(O)c1CC=C(C)C` [SINENSOL B], the result in data set [1] was Active. The result with MS-G2 [2] and in the data set with MS-G2 [3] was inactive.
As for `COc1cc(O)c2c(c1Cc1ccc(O)cc1)CCc1c-2ccc2c1C=CC(C)(C)O2` [SINENSOL D], the outcome in data set [1] was Active. For the same compound, the result with MS-G2 [2] and in the data set with MS-G2 [3] was inactive.
As for `COc1cc(OC)c2c(c1Cc1ccc(O)cc1)CCc1cc(O)ccc1-2` [SINENSOL A], the outcome in data set [1] was Active. Besides, the outcome in the data set on MS-G2 [2] and in the data set with MS-G2 [3] was inactive.
With `COc1cc(O)c2c(c1Cc1ccc(O)cc1)CCc1c-2cc(Cc2ccc(O)cc2)c(O)c1CC=C(C)C` [SINENSOL F], in data set [1], the outcome was Active. Also, the result in the data set on MS-G2 [2] and in the data set with MS-G2 [3] was inactive.

The record behind these values is ChEMBL document CHEMBL1155636, “Dihydrophenanthrenes from Spiranthes sinensis” (J Nat Prod, 2000).
